In patent EP0261693A1, “Treated lipid regulator” (WARNER-LAMBERT COMPANY, priority 1986, dated 1988):
Converted amounts (≈) assume the structure as drawn. Where two headings read alike, the source gives them in different places.

Experiment: Concentration (solubility) of gemfibrozil in buffer, from absorbance at 280 nm
Assay type: physicochemical
Conditions: aqueous buffer, excess gemfibrozil agitated overnight at room temperature, filtered, read-out: concentration of gemfibrozil in each buffer
Procedure: Gemfibrozil solutions were prepared in 0.05 M acetate buffer, pH 4.5, and 0.05 M phosphate buffer, pH 6.0 and 7.5 as follows: • Gemfibrozil solutions were prepared by adding an excess of gemfibrozil to the desired volume of buffer and agitating overnight on a shaker at room temperature. The resulting suspension was vacuum filtered. Gemfibrozil concentration was determined from absorbance at 280 nm, using [formula]
Ultraviolet absorbance measurements were obtained on a Beckman DU-7 spectrophotometer.
The concentration of gemfibrozil in each buffer, determined from absorbance at 280 nm was: pH 4.5, 0.014 mg/ml; pH 6.0, 0.150 mg/ml; pH 7.5, 1.711 mg/ml. Cholestyramine (10 mg) was added to 20 ml of each gemfibrozil solution and the mixtures were agitated for 2 hours. The mixtures were filtered and the concentration of unboud gemfibrozil was determined.

solubility thermodynamic (0.05 M acetate buffer, pH 4.5): 14 µg/mL (≈ 55.9 µM)
solubility thermodynamic (0.05 M phosphate buffer, pH 6.0): 150 µg/mL (≈ 599 µM)
solubility thermodynamic (0.05 M phosphate buffer, pH 7.5): 1710 µg/mL (≈ 6830 µM)
SMILES: Cc1ccc(C)c(OCCCC(C)(C)C(=O)O)c1 [gemfibrozil]
